The values below come from patent US20240158385A1, “NOVEL COMPOUNDS” (Cerevance, Inc., priority 2021, published 2024).

One assay addresses T1, human KCNK13 (Homo sapiens, UniProt Q9HB14).
T1 construct: expressed in transfected cells
T1 sequence (Q9HB14 1-408): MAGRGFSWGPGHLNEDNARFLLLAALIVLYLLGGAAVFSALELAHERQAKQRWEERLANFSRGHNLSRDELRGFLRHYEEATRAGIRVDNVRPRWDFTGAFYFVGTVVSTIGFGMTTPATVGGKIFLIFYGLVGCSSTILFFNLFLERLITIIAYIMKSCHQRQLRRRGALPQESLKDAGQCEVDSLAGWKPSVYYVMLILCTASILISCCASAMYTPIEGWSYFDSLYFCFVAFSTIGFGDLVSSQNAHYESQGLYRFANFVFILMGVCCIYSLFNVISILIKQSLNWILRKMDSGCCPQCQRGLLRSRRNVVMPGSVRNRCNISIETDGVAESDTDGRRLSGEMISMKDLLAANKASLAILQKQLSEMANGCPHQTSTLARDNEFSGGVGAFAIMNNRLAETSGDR
Briefly: KCNK13 antagonist activity, thallium (Tl+) flux FLIPR assay. Format: cell-based.
Conditions: not given
Summed up: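 HEK 293 cells stably expressing human KCNK13 loaded with Tl+-sensitive dye for 1 h at room temperature. Compounds (10-point half-log curves) preincubated 15 min before thallium sulfate stimulus, fluorescence tracked by FLIPR. IC50 from ten-point curves, each point the mean of two wells.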
Take `Nc1nonc1-c1nc2cccnc2n1Cc1ccc(Cl)nc1` [Example 23, 4-[3-[(6-chloropyridin-3-yl)methyl]imidazo[4,5-b]pyridin-2-yl]-1,2,5-oxadiazol-3-amine]: the IC50 (commonly the concentration at which inhibition is half-maximal) was less than 50 nM.

The same assay, now with this note: HEK 293 cells stably expressing human KCNK13; Tl+ sensitive dye, FLIPR; compounds 15 minutes prior to thallium sulfate; 10 point half log curves from 10 PM; read-out: hKCNK13 IC50.
For `Nc1nonc1-c1nc2cccc(F)c2n1Cc1ccc(C(F)F)nn1` (single isomer, unassigned) [Example 172, 4-(1-((6-(difluoromethyl)pyridazin-3-yl)methyl)-7-fluoro-benzimidazol-2-yl)-1,2,5-oxadiazol-3-amine], the IC50 was less than 200 nM.
The same measure, in the same setting: then `CCOc1ccc(Cn2c(-c3nonc3C)nc3c(F)cccc32)cn1` [Example 48, 3-[1-[(6-ethoxypyridin-3-yl)methyl]-4-fluoro-benzimidazol-2-yl]-4-methyl-1,2,5-oxadiazole], with less than 1000 nM.
Regarding `Cc1nonc1-c1nc2cccnc2n1Cc1ccc(C#N)nc1` [Example 50, 5-[[2-(4-methyl-1,2,5-oxadiazol-3-yl)imidazo[4,5-b]pyridin-3-yl]methyl]pyridine-2-carbonitrile], the IC50 is less than 100 nM.
Take `N#Cc1nsnc1-c1nc2ccccc2n1Cc1cccnc1` [Example 99, 4-[1-(pyridin-3-ylmethyl)benzimidazol-2-yl]-1,2,5-thiadiazole-3-carbonitrile]: the 50% inhibitory concentration (IC50) was less than 100 nM.
For `CCc1nonc1-c1nc2ccccc2n1Cc1cccnc1` [Example 116, 3-ethyl-4-[1-(pyridin-3-ylmethyl)benzimidazol-2-yl]-1,2,5-oxadiazole], the 50% inhibitory concentration (IC50) was less than 1000 nM.
On the same count and under the same terms, with `COc1ccc(Cn2c(-c3nonc3N)nc3cccnc32)cn1` [Example 14, 4-[3-[(6-methoxypyridin-3-yl)methyl]imidazo[4,5-b]pyridin-2-yl]-1,2,5-oxadiazol-3-amine] the figure was less than 200 nM.
Consider `Cc1nonc1-c1nc2c(F)ccc(F)c2n1Cc1cncnc1` [Example 84, 3-[4,7-difluoro-1-(pyrimidin-5-ylmethyl)benzimidazol-2-yl]-4-methyl-1,2,5-oxadiazole], for which the half-maximal inhibitory concentration (IC50) is less than 100 nM.
As for `Cc1nonc1-c1nc2ccc(F)c(F)c2n1Cc1cncnc1` [Example 7, 3-[6,7-difluoro-1-(pyrimidin-5-ylmethyl)benzimidazol-2-yl]-4-methyl-1,2,5-oxadiazole], the IC50 was less than 100 nM.
`N#Cc1ccc(Cn2c(-c3nonc3N)nc3cccnc32)nn1` [Example 177, 6-((2-(4-amino-1,2,5-oxadiazol-3-yl)-3H-imidazo[4,5-b]pyridin-3-yl)methyl)pyridazine-3-carbonitrile]: the IC50 was less than 1000 nM.
`Nc1nonc1-c1nc2cc(F)ccc2n1Cc1cncnc1` (single isomer, unassigned) [Example 5, 4-[5-fluoro-1-(pyrimidin-5-ylmethyl)benzimidazol-2-yl]-1,2,5-oxadiazol-3-amine]: the 50% inhibitory concentration (IC50) was less than 100 nM.
With `Cc1nonc1-c1nc2ccc(F)cc2n1Cc1ccc(C#N)nc1` [Example 55, 5-[[6-fluoro-2-(4-methyl-1,2,5-oxadiazol-3-yl)benzimidazol-1-yl]methyl]pyridine-2-carbonitrile], the IC50 was less than 100 nM.
With `Nc1nonc1-c1nc2c(F)cccc2n1Cc1cccnn1` [Example 179, 4-(4-fluoro-1-(pyridazin-3-ylmethyl)-benzimidazol-2-yl)-1,2,5-oxadiazol-3-amine], the IC50 is less than 200 nM.
On to `CN(C)c1ccc2c(c1)nc(-c1nonc1N)n2Cc1cccnc1` [Example 34, 4-[5-(dimethylamino)-1-(pyridin-3-ylmethyl)benzimidazol-2-yl]-1,2,5-oxadiazol-3-amine], for which the IC50 was less than 1000 nM.
Same read-out and setting: then `N#Cc1cnc(Cn2c(-c3nonc3N)nc3c(F)cccc32)cn1` [Example 36, 5-[[2-(4-amino-1,2,5-oxadiazol-3-yl)-4-fluoro-benzimidazol-1-yl]methyl]pyrazine-2-carbonitrile], with less than 100 nM; and `Cc1nonc1-c1nc2c(F)c(F)ccc2n1Cc1cccnn1` (single isomer, unassigned) [Example 171, 3-(4,5-difluoro-1-(pyridazin-3-ylmethyl)-benzimidazol-2-yl)-4-methyl-1,2,5-oxadiazole], with less than 500 nM.
Same read-out and setting: with `Cc1nonc1-c1nc2c(F)cccc2n1Cc1cccnc1` (single isomer, unassigned) [Example 123, 3-[4-fluoro-1-(pyridin-3-ylmethyl)benzimidazol-2-yl]-4-methyl-1,2,5-oxadiazole] the figure was less than 50 nM; with `Cc1nonc1-c1nc2cccc(F)c2n1Cc1cnc(C#N)nc1` [Example 44, 5-[[7-fluoro-2-(4-methyl-1,2,5-oxadiazol-3-yl)benzimidazol-1-yl]methyl]pyrimidine-2-carbonitrile], less than 50 nM.
The same measure, in the same setting: then `Nc1nonc1-c1nc2cc(F)cnc2n1Cc1cncnc1` [Example 12, 4-[6-fluoro-3-(pyrimidin-5-ylmethyl)imidazo[4,5-b]pyridin-2-yl]-1,2,5-oxadiazol-3-amine], with less than 200 nM; and `Nc1nonc1-c1nc2ccccc2n1Cc1cncc(C(F)(F)F)c1` [Example 95, 4-[1-[[5-(trifluoromethyl)pyridin-3-yl]methyl]benzimidazol-2-yl]-1,2,5-oxadiazol-3-amine], with less than 100 nM; and `Nc1nonc1-c1nc2ccccc2n1Cc1ccnc(C(F)(F)F)c1` [Example 94, 4-[1-[[2-(trifluoromethyl)pyridin-4-yl]methyl]benzimidazol-2-yl]-1,2,5-oxadiazol-3-amine], with less than 100 nM.
As for `Nc1nonc1-c1nc2c(F)cccc2n1Cc1ccncc1` (single isomer, unassigned) [Example 121, 4-[4-fluoro-1-(pyridin-4-ylmethyl)benzimidazol-2-yl]-1,2,5-oxadiazol-3-amine], the 50% inhibitory concentration (IC50) was less than 100 nM.
As to `Cc1nonc1-c1nc2cccc(F)c2n1Cc1cccnc1` (single isomer, unassigned) [Example 122, 3-[7-fluoro-1-(pyridin-3-ylmethyl)benzimidazol-2-yl]-4-methyl-1,2,5-oxadiazole], the IC50 was less than 50 nM.
On to `Nc1nonc1-c1nc2c(F)c(F)ccc2n1Cc1cccnn1` (single isomer, unassigned) [Example 163, 4-(4,5-difluoro-1-(pyridazin-3-ylmethyl)-benzimidazol-2-yl)-1,2,5-oxadiazol-3-amine], for which the IC50 was less than 200 nM.
On the same count and under the same terms, then `Cc1snnc1-c1nc2ccccc2n1Cc1cccnc1` [Example 102, 5-methyl-4-[1-(pyridin-3-ylmethyl)benzimidazol-2-yl]-1,2,3-thiadiazole], with less than 200 nM.
As for `CCc1nsnc1-c1nc2ccccc2n1Cc1cccnc1` [Example 105, 3-ethyl-4-[1-(pyridin-3-ylmethyl)benzimidazol-2-yl]-1,2,5-thiadiazole], the IC50 is less than 200 nM.
With `Nc1nonc1-c1nc2cccc(F)c2n1Cc1ccc(OC(F)(F)F)nc1` [Example 176, 4-(7-fluoro-1-((6-(trifluoromethoxy)pyridin-3-yl)methyl)-benzimidazol-2-yl)-1,2,5-oxadiazol-3-amine], the IC50 was less than 5000 nM.
`Cc1snnc1-c1nc2cccc(F)c2n1Cc1cccnc1` (single isomer, unassigned) [Example 128, 4-[7-fluoro-1-(pyridin-3-ylmethyl)benzimidazol-2-yl]-5-methyl-1,2,3-thiadiazole]: the IC50 was less than 100 nM.
As for `Nc1nonc1-c1nc2ccccc2n1Cc1ccncn1` [Example 106, 4-[1-(pyrimidin-4-ylmethyl)benzimidazol-2-yl]-1,2,5-oxadiazol-3-amine], the IC50 is less than 200 nM.
As to `CCOc1cccc2nc(-c3nonc3C)n(Cc3ccncc3)c12` [Example 70, 3-[7-ethoxy-1-(pyridin-4-ylmethyl)benzimidazol-2-yl]-4-methyl-1,2,5-oxadiazole], the IC50 is less than 500 nM.
For `Nc1nonc1-c1nc2c(F)cncc2n1Cc1cccnn1` (single isomer, unassigned) [Example 188, 4-(7-fluoro-3-(pyridazin-3-ylmethyl)-3H-imidazo[4,5-c]pyridin-2-yl)-1,2,5-oxadiazol-3-amine], the IC50 was less than 5000 nM.
For `Nc1nonc1-c1nc2ccccc2n1Cc1cccnc1C(F)(F)F` [Example 109, 4-[1-[[2-(trifluoromethyl)pyridin-3-yl]methyl]benzimidazol-2-yl]-1,2,5-oxadiazol-3-amine], the IC50 was less than 500 nM.
For `Nc1nonc1-c1nc2ccccc2n1Cc1cccnc1` [Example 90, 4-[1-(pyridin-3-ylmethyl)benzimidazol-2-yl]-1,2,5-oxadiazol-3-amine], the IC50 was less than 50 nM.
For `COc1ccc(Cn2c(-c3nonc3N)nc3c(F)cccc32)nn1` (single isomer, unassigned) [Example 153, 4-(4-fluoro-1-((6-methoxypyridazin-3-yl)methyl)-benzimidazol-2-yl)-1,2,5-oxadiazol-3-amine], the IC50 was less than 200 nM.
The same measure, in the same setting: with `Nc1nonc1-c1nc2c(F)cccc2n1Cc1cncnc1` [Example 131, 4-[4-fluoro-1-(pyrimidin-5-ylmethyl)benzimidazol-2-yl]-1,2,5-oxadiazol-3-amine] the figure was less than 100 nM; with `N#Cc1ccc(Cn2c(-c3nonc3N)nc3cccc(F)c32)nn1` (single isomer, unassigned) [Example 174, 6-((2-(4-amino-1,2,5-oxadiazol-3-yl)-7-fluoro-benzimidazol-1-yl)methyl)pyridazine-3-carbonitrile], less than 100 nM.
